Values quoted from earlier work as cited in patent publication US20030133995A1, “Ingestible capsaicin neutralizer” (priority 2002, published 2003).

What was measured:
[1] = pure capsaicin
[2] = pure form
tongue = settings: pure form diluted one hundred thousand fold

Question: For COc1cc(CNC(=O)CCCC/C=C/C(C)C)ccc1O [capsaicin, N-Vanillyl-8-methyl-6-(E)-noneamide], which heat sensation [1] is on record?
Answer: approximately 16,000,000 Scoville units

Question: And the “solubility in aqueous solutions” value ([2]; aqueous solutions)?
Answer: not very soluble

Question: What about the “solubility in fats, oils and alcohols” value ([2]; fats, oils and alcohols) of the same compound?
Answer: quite soluble

Question: What about the “blistering of the tongue” value (tongue) of the same compound?
Answer: can cause blistering of the tongue
